Legend:
[1] = Animal death during the hyperoxia experiment; format: in vivo, mouse; conditions: neonatal mice, i.p. every day P5 to P8, entire experiment
Procedure: Pregnant C57/BL6 wild-type mice (National Experimental Animal Center, Pocheon, Korea) were raised in individual cages by offering a free access to water and food to each mouse, the mice spontaneously gave birth to babies, and then the offsprings were grown in a chamber under hyperoxia (80% O2) conditions (P) or normal oxygen (21% O2) conditions by day 14. At this time, environmental humidity and temperature were maintained at 50% and 24° C., and to investigate the effect of activated FPR2, WKYMVm (SEQ ID NO: 1) or physiological saline (vehicle, 20 μl) was intraperitoneally administered to each mouse every day from P5 to P8. In this case, death of the animals was not observed throughout the entire experimental processes.

[2] = system: bronchopulmonary dysplasia in neonatal mice; conditions: Martin et al. 2014; cited from earlier work

| SMILES | death of the animals [1] | alveolar damage caused by bronchopulmonary dysplasia [2] |
| --- | --- | --- |
| CSCC[C@H](NC(=O)[C@H](Cc1ccc(O)cc1)NC(=O)[C@H](CCCCN)NC(=O)[C@@H](N)Cc1c[nH]c2ccccc12)C(=O)N[C@H](C(=O)N[C@H](CCSC)C(=O)O)C(C)C [WKYMVm, Trp-Lys-Tyr-Met-Val-D-Met] | not observed | – |
| CCCCC[C@H](O)/C=C/C=C\C=C\C=C\[C@@H](O)[C@@H](O)CCCC(=O)O [lipoxin A4] | – | improve alveolar damage |
| CC/C=C\C[C@H](O)/C=C/C=C\C=C\C=C\[C@@H](O)[C@@H](O)C/C=C\CCC(=O)O [resolvin D1] | – | improve alveolar damage |

From patent US20190192613A1, “COMPOSITION FOR PREVENTING OR TREATING HYPEROXIA-INDUCED LUNG INJURY COMPRISING WKYMVM PEPTIDE AS AN ACTIVE INGREDIENT” (SAMSUNG LIFE PUBLIC WELFARE FOUNDATION, priority 2017, published 2019)
